Reference: patent US20100303790A1, “USE OF BILIVERDIN REDUCTASE (BVR) AND BVR PEPTIDE FRAGMENTS TO TREAT CORONARY DISORDERS” (UNIVERSITY OF ROCHESTER, priority 2009, published 2010)
Entries after “also recorded” stand apart in the source; their conditions may differ.

Legend:
[1] = tested on: rat neonatal cardiomyocytes; conditions: literature (Hu et al. 2006); cited from earlier work
rat heart = test: BVR and HO-2 expression in rat heart after continuous isoproterenol infusion; type: in vivo; conditions: 400 μg isoproterenol/kg/h, four days
Description: (§1) Western Blot Analysis: Cell lysates were prepared by homogenization in RIPA buffer (40 mM Tris-HCl, pH 7.5, 1 mM EDTA, 1 mM DTT, 0.1 mM Na3VO4, 10 μg/ml aprotinin, 5 μg/ml pepstatin, 20 μg/ml leupeptin, 1 mM bezamidine followed by centrifugation at 800×g for 10 minutes at 4° C. (Ding et al., “Functional Role of Phosphodiesterase 3 in Cardiomyocyte Apoptosis: Implication in Heart Failure,” Circulation 111:2469-2476 (2005), which is hereby incorporated by reference in its entirety). Supernatant proteins were resolved by SDS-PAGE and transferred to nitrocellulose. Western blots were examined using antibodies against β-actin (Cell Signaling), BVR (Huang et al., “Detection of 10 Variants of Biliverdin Reductase in Rat Liver by Two-Dimensional Gel Electrophoresis,” J Biol Chem 264:7844-7849 (1989), which is hereby incorporated by reference in its entirety), HO-1, HO-2 (Panahian et al., “Site of Injury-Directed Induction of Heme Oxygenase-1 and -2 in Experimental Spinal Cord Injury Differential Functions in Neuronal Defense Mechanisms?” J Neurochem 76:539-554 (2001), which is hereby incorporated by reference in its entirety), and cleaved caspase-3 (Cell Signaling, Beverly Mass.). The secondary antibody was horseradish peroxidase-conjugated goat anti-rabbit IgG (1:2,000, Bio-Rad).
Quantitative RT-PCR: Total RNA was isolated using Trizol reagent (Invitrogen). The first-strand cDNA synthesis and quantitative polymerase chain reaction (RT-PCR) were performed as previously described (Tudor et al., “Biliverdin Reductase is a Transporter of Haem into the Nucleus and is Essential for Regulation of HO-1 Gene Expression by Haematin,” Biochem J 413:405-416 (2008), which is hereby incorporated by reference in its entirety). The following primers were used for PCR analysis: […]
Implanting ISO Miniosmotic Pump: Miniosmotic pumps (Alzet model 2001, Durect Co., Cupertino, Calif.) were filled under sterile conditions with ISO dissolved in 0.001 N HCl, primed in sterile saline at 37° C. overnight, and aseptically implanted subcutaneously under halothane anesthesia. The ISO concentration was calculated to allow the pumps to deliver the drug at an infusion rate of 400 μg ISO base/kg/h, essentially as described by (Hayes et al., “Effects of Prolonged Isoproterenol Infusion on Cardiac and Vascular Responses to Adrenoceptor Agonists,”J Pharmacol Exp Ther 237:757-763 (1986), which is hereby incorporated by reference in its entirety).
It might be argued that the above data arose as an artifact of cell culture. To test whether those findings also apply in vivo, four rats were continuously infused with isoproterenol for four days, after which cardiac tissue was harvested for examination of BVR and HO-2 expression. […] Also, as expected from in vitro observations, there was no change in the level of HO-2 mRNA during infusion with isoproterenol (FIG. 3B), whereas the BVR mRNA was increased.

[2] = Langendorff perfused heart: BVR and HO-2 protein by western blot; type: in vivo, rat; conditions: 3 hours perfusion; for HO-2 protein expression: peptide 25 μM with 0.1 μM ISO; for BVR protein expression: peptide 25 μM
Description: as §1
In Vivo Experimental Langendorff Model: Male Sprague-Dawley rats weighing 250-300 g (Charles River, Boston, Mass.) were used in this study; the protocol is based on that described by Tompkins et al., “Mitochondrial Dysfunction in Cardiac Ischemia-Reperfusion Injury: ROS From Complex I, Without Inhibition,” Biochim Biophys Acta 1762:223-231 (2006), which is hereby incorporated by reference in its entirety, with minor modification. The rats were fed a standard rat chow and had water ad libitum. All experiments were approved by the University of Rochester Institutional Animal Care and Use Committee. Rats were given two subcutaneous injections of isoproterenol (ISO) (0.01 mg/kg), 6 hours apart, then anesthetized with freshly prepared Avertin (2,2,2-tribromoethanol, […] injected intraperitoneally), and treated with heparin (5000 U/kg), i.p., to protect the heart against microthrombi. The aorta was cannulated in situ with a 22-gauge needle filled with warm Krebs-Henseleit (KH) buffer. The heart was rapidly transferred (<10 s.) to a perfusion apparatus, and retrograde (Langendorff) perfusion begun with 37° C. KH buffer gassed with 95% O2 plus 5% CO2, in constant flow mode (12 ml/min). […] Hemodynamics and heart rate were recorded by inserting a water-filled balloon connected to a transducer (Radnoti LLC, model no. 159904B) into the left ventricle. […]

BVR = target: T1, BVR (Homo sapiens, UniProt P53004, A154S/E160D/G155D); conditions: Lerner-Marmarosh et al. 2007; cited from earlier work
T1 sequence (P53004 3-296 A154S/G155D/E160D): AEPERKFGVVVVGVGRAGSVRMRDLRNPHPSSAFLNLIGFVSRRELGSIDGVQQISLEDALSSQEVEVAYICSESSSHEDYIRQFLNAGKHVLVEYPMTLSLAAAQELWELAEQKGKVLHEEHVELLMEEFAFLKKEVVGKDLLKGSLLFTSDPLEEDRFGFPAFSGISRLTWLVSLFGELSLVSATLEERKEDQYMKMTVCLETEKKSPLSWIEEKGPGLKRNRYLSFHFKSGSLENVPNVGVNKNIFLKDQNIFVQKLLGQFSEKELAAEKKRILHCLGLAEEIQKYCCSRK

Compound	cardiomyocyte apoptosis [1]	BVR mRNA in heart (rat heart)	level of HO-1 mRNA in the tissue (rat heart)	level of HO-2 mRNA in heart (rat heart)	BVR protein expression in heart (rat heart; vs sham)	HO-2 protein expression in heart (rat heart; vs sham)	HO-2 protein expression [2]	BVR protein expression [2]	effect on BVR activity (BVR)
CC(C)NCC(O)c1ccc(O)c(O)c1 (stereo not drawn) [isoproterenol]	increases cardiomyocyte apoptosis	increased	no apparent change	no change	up-regulated	up-regulated			
KKRILHC (biliverdin reductase peptide) [KKRILHC^281]							inhibited the BVR-induced HO-2 increase; also recorded: virtually eliminated the induction of HO-2	do not affect protein expression	potent inhibitor
KYCCSRK (biliverdin reductase peptide) [KYCCSRK^296]							increased HO-2 protein expression; also recorded: greatly enhanced increase of HO-2 protein	do not affect protein expression	activator
